Results reported in the SangsterLogP compilation.

Test: method code SF-HPLC, from DOI: 10.1002/qsar.19910100205
Details: pH 3.5

Row | SMILES | logD
1 | O=C1CC(=O)N(c2ccccc2)O1 | 0.54
2 | O=C1NC(=O)C(c2ccccc2)O1 (configuration not stated) | 1.09
3 | O=C1CN(Cc2ccccc2)C(=O)N1 | 0.76
4 | O=c1[nH]c(=O)n(-c2ccccc2)o1 | 1.68
5 | NS(=O)(=O)NC(=O)Cc1ccccc1 | 0.31
6 | O=C1NC(=O)C(Cc2ccccc2)S1 (configuration not stated) | 1.98
7 | O=C1CS(=O)(=O)C(c2ccccc2)N1 (configuration not stated) | 0.18
8 | O=C1CN(c2ccccc2)C(=O)N1 | 0.83
9 | O=C1NC(=O)N(Cc2ccccc2)C1=O | 1.19
10 | O=C1CNC(=O)N1c1ccccc1 | 0.04
11 | O=C1NC(=O)N(c2ccccc2)C1=O | 0.6
12 | O=C1CC(=O)N(Cc2ccccc2)C1 | 0.76
13 | O=C1CC(=O)C(c2ccccc2)O1 (configuration not stated) | 1.07
14 | CC1(COc2ccc(CC3SC(=O)NC3=O)cc2)CCCCC1 (configuration not stated) | 3.57
15 | O=C1NC(=O)C(Cc2ccccc2)N1 (configuration not stated) | 0.6
16 | O=C1NC(=O)C(Cc2ccccc2)O1 (configuration not stated) | 1.2
17 | O=C1CC(=O)C(c2ccccc2)N1 (configuration not stated) | 0.48
